From US7601713B2, “Kinase inhibitors and their uses” (Rigel Pharmaceuticals, Inc., priority 2005, dated 2009)
Read-outs that look alike come from different tables or passages of the source.

Columns and labels:
[1] = test system: tumor cell lines; details: cited from earlier work; for antiproliferative activity against tumor cell types: in vitro assays, variety of tumor cell lines
[2] = biological target: Aurora kinase B (Homo sapiens, UniProt Q96GD4); details: compared to the (1S,2S,3R,4R) diastereomers; cited from earlier work
[3] = biological target: T1, Axl kinase (Homo sapiens, UniProt P30530); assay: Phospho-Akt in-cell Western assay (Axl antibody cross-linking, Hela cells); assay type: cell-based; details: phospho-Akt readout, read-out: IC50, inhibition of Axl kinase
T1 construct: endogenous in cells; host or cells: HeLa cells
T1 sequence (P30530 26-894): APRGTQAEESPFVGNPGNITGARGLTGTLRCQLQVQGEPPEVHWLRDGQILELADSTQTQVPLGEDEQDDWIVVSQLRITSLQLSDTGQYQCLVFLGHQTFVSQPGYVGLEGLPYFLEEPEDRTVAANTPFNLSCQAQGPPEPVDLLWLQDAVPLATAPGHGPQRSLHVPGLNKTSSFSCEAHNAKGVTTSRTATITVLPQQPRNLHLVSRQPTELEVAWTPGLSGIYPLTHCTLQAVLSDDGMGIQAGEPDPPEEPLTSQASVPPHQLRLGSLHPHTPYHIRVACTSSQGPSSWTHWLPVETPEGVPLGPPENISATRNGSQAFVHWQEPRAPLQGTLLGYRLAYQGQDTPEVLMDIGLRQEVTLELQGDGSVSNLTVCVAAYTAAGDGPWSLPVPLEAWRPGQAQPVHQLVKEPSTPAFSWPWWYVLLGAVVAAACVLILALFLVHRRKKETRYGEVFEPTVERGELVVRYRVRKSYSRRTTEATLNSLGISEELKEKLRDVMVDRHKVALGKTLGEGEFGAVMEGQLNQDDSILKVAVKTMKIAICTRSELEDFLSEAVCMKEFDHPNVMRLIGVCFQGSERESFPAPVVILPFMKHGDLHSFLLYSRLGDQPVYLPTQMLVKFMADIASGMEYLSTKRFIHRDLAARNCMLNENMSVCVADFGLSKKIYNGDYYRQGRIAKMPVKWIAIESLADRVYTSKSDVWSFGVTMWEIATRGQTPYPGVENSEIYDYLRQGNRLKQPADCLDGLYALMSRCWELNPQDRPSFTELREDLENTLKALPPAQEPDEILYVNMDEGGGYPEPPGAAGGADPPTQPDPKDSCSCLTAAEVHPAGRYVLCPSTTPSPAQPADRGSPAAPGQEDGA
Outline: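 HeLa cells were starved 24 h in 0.5% FCS with 500 ng/mL Axl/Fc, pretreated with compound 1 h at 37 °C, then stimulated 5 min by cross-linked anti-Axl antibodies. Phospho-Akt was detected by in-cell chemiluminescent immunoassay and normalized to crystal violet cell number at 590 nm.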

[4] = biological target: Syk kinase (Homo sapiens, UniProt P43405); assay: cell-based Syk assay; details: read-out: IC50, inhibition of Syk kinase
[5] = biological target: PRK1 kinase (Homo sapiens, UniProt Q16512); assay: PRK1 kinase inhibition; assay type: biochemical
[6] = test system: Aurora kinases; details: cited from earlier work

Sequence of PRK1 kinase (Q16512 whole entry): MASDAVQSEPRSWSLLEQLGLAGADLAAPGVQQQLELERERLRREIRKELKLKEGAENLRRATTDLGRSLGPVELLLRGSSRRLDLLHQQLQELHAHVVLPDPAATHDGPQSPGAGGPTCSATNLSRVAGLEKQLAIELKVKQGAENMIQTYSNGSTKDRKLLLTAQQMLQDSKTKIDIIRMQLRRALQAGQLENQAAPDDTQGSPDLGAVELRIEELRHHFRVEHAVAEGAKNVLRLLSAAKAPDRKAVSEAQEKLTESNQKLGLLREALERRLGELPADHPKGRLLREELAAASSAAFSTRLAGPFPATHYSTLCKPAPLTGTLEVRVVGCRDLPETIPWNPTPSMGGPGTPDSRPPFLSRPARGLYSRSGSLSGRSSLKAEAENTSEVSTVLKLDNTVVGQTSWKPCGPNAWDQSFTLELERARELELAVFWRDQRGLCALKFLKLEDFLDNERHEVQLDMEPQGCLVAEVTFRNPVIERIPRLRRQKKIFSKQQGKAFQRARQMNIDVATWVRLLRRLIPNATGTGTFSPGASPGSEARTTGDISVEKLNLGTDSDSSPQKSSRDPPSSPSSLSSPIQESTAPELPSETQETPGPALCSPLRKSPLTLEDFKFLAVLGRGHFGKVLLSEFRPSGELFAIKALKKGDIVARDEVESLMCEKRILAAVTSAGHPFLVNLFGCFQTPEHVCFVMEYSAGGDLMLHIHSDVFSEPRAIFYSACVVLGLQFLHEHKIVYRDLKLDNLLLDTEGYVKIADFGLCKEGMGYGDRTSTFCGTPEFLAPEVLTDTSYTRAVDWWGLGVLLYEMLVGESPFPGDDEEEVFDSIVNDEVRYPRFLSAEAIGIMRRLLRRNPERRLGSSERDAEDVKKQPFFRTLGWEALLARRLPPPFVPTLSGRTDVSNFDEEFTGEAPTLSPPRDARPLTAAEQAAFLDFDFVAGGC
Sequence of Aurora kinase B (Q96GD4 whole entry, species assumed): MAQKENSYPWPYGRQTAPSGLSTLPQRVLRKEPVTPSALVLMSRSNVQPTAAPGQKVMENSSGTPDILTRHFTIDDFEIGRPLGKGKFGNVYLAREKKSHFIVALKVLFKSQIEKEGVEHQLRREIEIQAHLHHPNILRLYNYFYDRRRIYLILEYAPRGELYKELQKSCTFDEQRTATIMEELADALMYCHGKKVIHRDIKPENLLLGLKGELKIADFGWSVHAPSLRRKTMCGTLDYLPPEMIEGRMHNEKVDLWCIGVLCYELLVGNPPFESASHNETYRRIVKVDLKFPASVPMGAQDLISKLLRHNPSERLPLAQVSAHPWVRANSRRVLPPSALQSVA

Row | IC50 [3] [µM] | IC50 [5] [µM] | SMILES | antiproliferative activity against tumor cell types [1] | inhibition of Aurora kinases [6] | also measured
1 |  |  | Cc1cc(Nc2ncc(F)c(NC3C4C=CC(C4)C3C(N)=O)n2)ccc1N1CCN(C)CC1 [(1R,2R,3S,4S) diastereomer, N4-(3-aminocarbonylbicyclo [2.2.1]hept-5-en-2-yl)-5-fluoro-N2-[3-methyl-4-(4-methylpiperazin-1-yl)phenyl]-2,4-pyrimidinediamine] |  |  | potency of (1R,2R,3S,4S) diastereomer relative to (1S,2S,3R,4R) diastereomer [1]: approximately 1000 fold; IC50s against tumor cell lines ([1]; isolated stereoisomers): nanomolar range; inhibition of Aurora kinase B in cells [2]: similarly superior results
2 | < 5 | < 5 | NC(=O)C1C2C=CC(C2)C1Nc1nc(Nc2cccc(CN3CCOCC3)c2)nc2[nH]ccc12 (racemic) [Compound 221, Racemic-(2-exo,3-exo)-N4-(3-aminocarbonylbicyclo [2.2.1]hept-5-en-2-yl)-N2-(3-morpholin-4-yl-methylphenyl)-1H-pyrrolo[2,3-d]pyrimidine-2,4-diamine] |  |  | IC50 [4]: < 5 µM
3 |  |  | Cc1cc(Nc2ncc(F)c(NC3CCCC3C(N)=O)n2)ccc1N1CCN(C)CC1 [cis (1S,2R), N4-(2-aminocarbonylcyclopent-1-yl)-5-fluoro-N2-[4-(4-methylpiperazin-1-yl)-3-methylphenyl]-2,4-pyrimidinediamine] | inhibit the proliferation | inhibited Aurora kinases | antiproliferative activity against tumor cell types ([1]; listed as cis(1S,2R)): exhibited antiproliferative activity
4 |  |  | Cc1cc(Nc2ncc(F)c(NC3CCCC3C(N)=O)n2)ccc1N1CCN(C)CC1 [trans (1R,2R) diastereomer, N4-(2-aminocarbonylcyclopent-1-yl)-5-fluoro-N2-[4-(4-methylpiperazin-1-yl)-3-methylphenyl]-2,4-pyrimidinediamine] | inhibit the proliferation | inhibited Aurora kinases | antiproliferative activity against tumor cell types ([1]; listed as trans(1R,2R)): exhibited antiproliferative activity
5 | > 10 | < 5 | N#Cc1ccc(-c2ccc(Nc3nc(NC4C5C=CC(C5)C4C(N)=O)c4cc[nH]c4n3)cc2)cc1 (racemic) [Compound 220, Racemic-(2-exo,3-exo)-N4-(3-aminocarbonylbicyclo [2.2.1]hept-5-en-2-yl)-N2-[(4′-cyano[1,1′-biphenyl]-4-yl)]-1H-pyrrolo[2,3-d]pyrimidine-2,4-diamine] |  |  | 
6 |  |  | Cc1cc(Nc2ncc(F)c(NC3CCCC3C(N)=O)n2)ccc1N1CCN(C)CC1 [cis (1R,2S), N4-(2-aminocarbonylcyclopent-1-yl)-5-fluoro-N2-[4-(4-methylpiperazin-1-yl)-3-methylphenyl]-2,4-pyrimidinediamine] | inhibit the proliferation | inhibited Aurora kinases | antiproliferative activity against tumor cell types ([1]; listed as (1R,2S)): exhibited antiproliferative activity
